Measurements reported in ChEMBL document CHEMBL1201861, “Genomics of Drug Sensitity in Cancer screening data, Wellcome Trust Sanger Institute”.

Experiments:
Assay in all cases: cells
[1] = tested on: M14; format: functional, cell-based; details: Homo sapiens;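 also: growth inhibition of M14 cells, read out with a cell viability assay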
Description: SANGER: Inhibition of human M14 cell growth in a cell viability assay.

[2] = tested on: PFSK-1; format: functional, cell-based; details: Homo sapiens;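 also: cell viability assay measuring how strongly compounds suppress growth of human PFSK-1 cells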
Description: SANGER: Inhibition of human PFSK-1 cell growth in a cell viability assay.

[3] = tested on: CAL-33; format: functional, cell-based; details: Homo sapiens;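 also: growth inhibition of CAL-33 cells, read out with a cell viability assay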
Description: SANGER: Inhibition of human CAL-33 cell growth in a cell viability assay.

[4] = tested on: HSC-2; format: functional, cell-based; details: Homo sapiens;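 also: growth inhibition of human HSC-2 cells, read out by a cell viability assay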
Description: SANGER: Inhibition of human HSC-2 cell growth in a cell viability assay.

[5] = tested on: NCI-H441; format: functional, cell-based; details: Homo sapiens;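 also: growth inhibition of NCI-H441 cells, read out with a cell viability assay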
Description: SANGER: Inhibition of human NCI-H441 cell growth in a cell viability assay.

[6] = tested on: HT-29; format: functional, cell-based; details: Homo sapiens;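 also: growth inhibition of human HT-29 cells, read out by a cell viability assay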
Description: SANGER: Inhibition of human HT-29 cell growth in a cell viability assay.

[7] = tested on: C3A; format: functional, cell-based; details: Homo sapiens;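 also: growth inhibition of C3A human cells, quantified with a cell viability readout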
Description: SANGER: Inhibition of human C3A cell growth in a cell viability assay.

[8] = tested on: SAS; format: functional, cell-based; details: Homo sapiens;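 also: growth inhibition of SAS cells, read out with a cell viability assay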
Description: SANGER: Inhibition of human SAS cell growth in a cell viability assay.

[9] = tested on: DoTc2-4510; format: functional, cell-based; details: Homo sapiens
[10] = tested on: HuO9; format: functional, cell-based; details: Homo sapiens;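 also: growth inhibition of HuO9 cells, read out with a cell viability assay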
Description: SANGER: Inhibition of human HuO9 cell growth in a cell viability assay.

[11] = tested on: MEL-JUSO; format: functional, cell-based; details: Homo sapiens;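 also: growth inhibition of human MEL-JUSO cells, read out with a cell viability assay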
Description: SANGER: Inhibition of human MEL-JUSO cell growth in a cell viability assay.

[12] = tested on: SK-LU-1; format: functional, cell-based; details: Homo sapiens;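 also: cell viability assay measuring growth inhibition of human SK-LU-1 cells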
Description: SANGER: Inhibition of human SK-LU-1 cell growth in a cell viability assay.

[13] = tested on: HCC38; format: functional, cell-based; details: Homo sapiens;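 also: cell viability assay on the human HCC38 cell line, with IC50 marking the concentration that inhibits cell growth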
Description: SANGER: Inhibition of human HCC38 cell growth in a cell viability assay.

[14] = tested on: SW837; format: functional, cell-based; details: Homo sapiens;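 also: growth inhibition of SW837 cells, determined with a cell viability assay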
Description: SANGER: Inhibition of human SW837 cell growth in a cell viability assay.

[15] = tested on: GAMG; format: functional, cell-based; details: Homo sapiens;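 also: cell growth inhibition measured by a viability assay in the GAMG human cell line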
Description: SANGER: Inhibition of human GAMG cell growth in a cell viability assay.

[16] = tested on: ACHN; format: functional, cell-based; details: Homo sapiens;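 also: cell viability read-out used to gauge how strongly growth of human ACHN cells is suppressed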
Description: SANGER: Inhibition of human ACHN cell growth in a cell viability assay.

[17] = tested on: YKG-1; format: functional, cell-based; details: Homo sapiens;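 also: cell growth inhibition, read out with a viability assay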
Description: SANGER: Inhibition of human YKG-1 cell growth in a cell viability assay.

[18] = tested on: HCC1806; format: functional, cell-based; details: Homo sapiens;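 also: growth inhibition of the cancer cell line, determined with a cell viability assay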
Description: SANGER: Inhibition of human HCC1806 cell growth in a cell viability assay.

[19] = tested on: SW1783; format: functional, cell-based; details: Homo sapiens;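 also: cell growth inhibition measured with a viability assay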
Description: SANGER: Inhibition of human SW1783 cell growth in a cell viability assay.

[20] = tested on: A-431; format: functional, cell-based; details: Homo sapiens;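 also: growth inhibition of A-431 cells, determined with a cell viability read-out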
Description: SANGER: Inhibition of human A431 cell growth in a cell viability assay.

[21] = tested on: NCI-H1793; format: functional, cell-based; details: Homo sapiens;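 also: cell growth inhibition, read out by a cell viability assay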
Description: SANGER: Inhibition of human NCI-H1793 cell growth in a cell viability assay.

[22] = tested on: G-361; format: functional, cell-based; details: Homo sapiens
[23] = tested on: D-336MG; format: functional, cell-based; details: Homo sapiens
Description: SANGER: Inhibition of human D-336MG cell growth in a cell viability assay.

[24] = tested on: BCPAP; format: functional, cell-based; details: Homo sapiens;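 also: growth inhibition of BCPAP cells, read out in a cell viability assay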
Description: SANGER: Inhibition of human BCPAP cell growth in a cell viability assay.

[25] = tested on: 5637; format: functional, cell-based; details: Homo sapiens
Description: SANGER: Inhibition of human 5637 cell growth in a cell viability assay.

[26] = tested on: LCLC-103H cell line; format: functional, cell-based; details: Homo sapiens
Description: SANGER: Inhibition of human LCLC-103H cell growth in a cell viability assay.

[27] = tested on: KYSE-180; format: functional, cell-based; details: Homo sapiens;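 also: growth inhibition of KYSE-180 cells, read out with a cell viability assay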
Description: SANGER: Inhibition of human KYSE-180 cell growth in a cell viability assay.

[28] = tested on: PC-3; format: functional, cell-based; details: Homo sapiens;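 also: cell viability assay measuring growth inhibition of PC-3 cells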
Description: SANGER: Inhibition of human PC-3 cell growth in a cell viability assay.

[29] = tested on: T47D; format: functional, cell-based; details: Homo sapiens;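 also: growth inhibition of human T47D cells, measured with a cell viability assay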
Description: SANGER: Inhibition of human T47D cell growth in a cell viability assay.

[30] = tested on: Panc1005; format: functional, cell-based; details: Homo sapiens;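 also: growth inhibition of human PANC-10-05 cells, measured by a cell viability assay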
Description: SANGER: Inhibition of human PANC-10-05 cell growth in a cell viability assay.

[31] = tested on: MDA-MB-175-VII; format: functional, cell-based; details: Homo sapiens
[32] = tested on: H4; format: functional, cell-based; details: Homo sapiens
Description: SANGER: Inhibition of human H4 cell growth in a cell viability assay.

[33] = tested on: A673; format: functional, cell-based; details: Homo sapiens;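 also: growth inhibition of human A673 cells, read out through a cell viability assay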
Description: SANGER: Inhibition of human A673 cell growth in a cell viability assay.

[34] = tested on: NB7; format: functional, cell-based; details: Homo sapiens;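 also: growth inhibition of NB7 cells, read out with a cell viability assay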
Description: SANGER: Inhibition of human NB7 cell growth in a cell viability assay.

[35] = tested on: HT1197; format: functional, cell-based, HT-1197; details: Homo sapiens
Description: SANGER: Inhibition of human HT-1197 cell growth in a cell viability assay.

[36] = tested on: CWR22R; format: functional, cell-based; details: Homo sapiens, 22Rv1;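 also: growth inhibition of 22Rv1 cells, read out with a cell viability assay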
Description: SANGER: Inhibition of human 22RV1 cell growth in a cell viability assay.

[37] = tested on: SCC-9; format: functional, cell-based; details: Homo sapiens;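 also: Read-out is a cell viability assay, with values giving inhibition of cell growth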
Description: SANGER: Inhibition of human SCC-9 cell growth in a cell viability assay.

[38] = tested on: BHT-101; format: functional, cell-based; details: Homo sapiens
Description: SANGER: Inhibition of human BHT-101 cell growth in a cell viability assay.

[39] = tested on: NUGC-3; format: functional, cell-based; details: Homo sapiens;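 also: growth inhibition of human NUGC-3 cells, read out with a cell viability assay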
Description: SANGER: Inhibition of human NUGC-3 cell growth in a cell viability assay.

[40] = tested on: MKN-28; format: functional, cell-based; details: Homo sapiens;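 also: cell viability assay read-out, IC50 reflects suppression of growth of human MKN-28 cells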
Description: SANGER: Inhibition of human MKN28 cell growth in a cell viability assay.

[41] = tested on: LoVo; format: functional, cell-based; details: Homo sapiens;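 also: growth inhibition of human LoVo cells, read out with a cell viability assay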
Description: SANGER: Inhibition of human LoVo cell growth in a cell viability assay.

[42] = tested on: FaDu; format: functional, cell-based; details: Homo sapiens;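 also: cell viability readout of growth inhibition in FaDu cells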
Description: SANGER: Inhibition of human FADU cell growth in a cell viability assay.

[43] = tested on: RT-112; format: functional, cell-based; details: Homo sapiens
Description: SANGER: Inhibition of human RT-112 cell growth in a cell viability assay.

[44] = tested on: C-33-A; format: functional, cell-based; details: Homo sapiens;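 also: cell viability assay measuring growth inhibition of C-33-A cells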
Description: SANGER: Inhibition of human C-33-A cell growth in a cell viability assay.

[45] = tested on: ASPC1; format: functional, cell-based; details: Homo sapiens;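 also: growth inhibition of AsPC-1 cells, read out with a cell viability assay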
Description: SANGER: Inhibition of human AsPC-1 cell growth in a cell viability assay.

[46] = tested on: MKN-7; format: functional, cell-based; details: Homo sapiens;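 also: growth inhibition of MKN-7 cells, read out with a cell viability assay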
Description: SANGER: Inhibition of human MKN7 cell growth in a cell viability assay.

[47] = tested on: NCI-H1755; format: functional, cell-based; details: Homo sapiens;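 also: cell viability readout used to measure growth inhibition of NCI-H1755 cells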
Description: SANGER: Inhibition of human NCI-H1755 cell growth in a cell viability assay.

[48] = tested on: Capan-2; format: functional, cell-based; details: Homo sapiens;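 also: Capan-2 cell growth inhibition, read out with a viability assay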
Description: SANGER: Inhibition of human Capan-2 cell growth in a cell viability assay.

[49] = tested on: Huh-7; format: functional, cell-based; details: Homo sapiens;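 also: HuH-7 cell growth inhibition, read out with a cell viability assay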
Description: SANGER: Inhibition of human HuH-7 cell growth in a cell viability assay.

[50] = tested on: ChaGo-K-1; format: functional, cell-based; details: Homo sapiens;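 also: growth inhibition of ChaGo-K-1 cells, read out with a cell viability assay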
Description: SANGER: Inhibition of human ChaGo-K-1 cell growth in a cell viability assay.

**Q.** What does the source list for `CC[C@@]1(O)C(=O)OCc2c1cc1n(c2=O)Cc2cc3ccccc3nc2-1` [CAMPTOTHECIN]?
**A.** IC50 [1]: 0.00995 µM; IC50 [2]: 0.026 µM; IC50 [3]: 0.006 µM; IC50 [4]: 0.0117 µM; IC50 [5]: 0.0285 µM; IC50 [6]: 0.0855 µM; IC50 [7]: 0.0569 µM; IC50 [8]: 0.00124 µM; IC50 [9]: 0.00403 µM; IC50 [10]: 0.00288 µM; IC50 [11]: 0.0356 µM; IC50 [12]: 0.00471 µM; IC50 [13]: 0.0129 µM; IC50 [14]: 0.0489 µM; IC50 [15]: 0.00153 µM; IC50 [16]: 0.00666 µM; IC50 [17]: 0.00545 µM; IC50 [18]: 0.00314 µM; IC50 [19]: 0.0246 µM; IC50 [20]: > 0.1 µM; IC50 [21]: 0.0272 µM; IC50 [22]: > 0.1 µM; IC50 [23]: 0.0052 µM; IC50 [24]: 0.00304 µM; IC50 [25]: 0.00418 µM; IC50 [26]: 0.0205 µM; IC50 [27]: 0.0132 µM; IC50 [28]: 0.00975 µM; IC50 [29]: 0.0135 µM; IC50 [30]: 0.0197 µM; IC50 [31]: 0.083 µM; IC50 [32]: 0.000615 µM; IC50 [33]: 0.000815 µM; IC50 [34]: 0.0168 µM; IC50 [35]: > 0.1 µM; IC50 [36]: 0.00931 µM; IC50 [37]: 0.0332 µM; IC50 [38]: 0.00182 µM; IC50 [39]: 0.00314 µM; IC50 [40]: 0.0512 µM; IC50 [41]: 0.0149 µM; IC50 [42]: 0.000539 µM; IC50 [43]: 0.0149 µM; IC50 [44]: 0.00648 µM

**Q.** For `NC(=O)c1ncn([C@@H]2O[C@H](COP(=O)(O)O)[C@@H](O)[C@H]2O)c1N`, which IC50 [1] is on record?
**A.** 295 µM

**Q.** And the IC50 [2]?
**A.** > 2000 µM

**Q.** And the IC50 [3]?
**A.** 1310 µM

**Q.** And the IC50 [45]?
**A.** 1330 µM

**Q.** What about the IC50 [4] of the same compound?
**A.** 846 µM

**Q.** What about the IC50 [46] of the same compound?
**A.** > 2000 µM

**Q.** And the IC50 [5]?
**A.** > 2000 µM

**Q.** What about the IC50 [6] of the same compound?
**A.** > 2000 µM

**Q.** What about the IC50 [7] of the same compound?
**A.** > 2000 µM

**Q.** And the IC50 [8]?
**A.** 746 µM

**Q.** And the IC50 [9]?
**A.** 1250 µM

**Q.** And the IC50 [10]?
**A.** 1970 µM

**Q.** And the IC50 [11]?
**A.** > 2000 µM

**Q.** What about the IC50 [12] of the same compound?
**A.** 1700 µM

**Q.** What about the IC50 [13] of the same compound?
**A.** > 2000 µM

**Q.** And the IC50 [14]?
**A.** > 2000 µM

**Q.** What about the IC50 [15] of the same compound?
**A.** > 2000 µM

**Q.** And the IC50 [16]?
**A.** 1210 µM

**Q.** And the IC50 [17]?
**A.** 552 µM

**Q.** What about the IC50 [47] of the same compound?
**A.** 1840 µM

**Q.** What about the IC50 [18] of the same compound?
**A.** 361 µM

**Q.** What about the IC50 [48] of the same compound?
**A.** > 2000 µM

**Q.** What about the IC50 [19] of the same compound?
**A.** > 2000 µM

**Q.** And the IC50 [20]?
**A.** > 2000 µM

**Q.** And the IC50 [21]?
**A.** > 2000 µM

**Q.** And the IC50 [24]?
**A.** 733 µM

**Q.** What about the IC50 [25] of the same compound?
**A.** > 2000 µM

**Q.** What about the IC50 [26] of the same compound?
**A.** 1370 µM

**Q.** And the IC50 [27]?
**A.** 453 µM

**Q.** And the IC50 [28]?
**A.** 349 µM

**Q.** What about the IC50 [29] of the same compound?
**A.** 413 µM

**Q.** What about the IC50 [49] of the same compound?
**A.** > 2000 µM

**Q.** What about the IC50 [30] of the same compound?
**A.** > 2000 µM

**Q.** What about the IC50 [31] of the same compound?
**A.** > 2000 µM

**Q.** What about the IC50 [32] of the same compound?
**A.** > 2000 µM

**Q.** And the IC50 [33]?
**A.** > 2000 µM

**Q.** And the IC50 [34]?
**A.** 901 µM

**Q.** And the IC50 [50]?
**A.** 1380 µM

**Q.** And the IC50 [35]?
**A.** > 2000 µM

**Q.** And the IC50 [36]?
**A.** > 2000 µM

**Q.** What about the IC50 [37] of the same compound?
**A.** > 2000 µM

**Q.** What about the IC50 [38] of the same compound?
**A.** > 2000 µM

**Q.** And the IC50 [39]?
**A.** > 2000 µM

**Q.** And the IC50 [40]?
**A.** > 2000 µM

**Q.** And the IC50 [41]?
**A.** > 2000 µM

**Q.** What about the IC50 [42] of the same compound?
**A.** 1060 µM

**Q.** And the IC50 [43]?
**A.** 1870 µM

**Q.** And the IC50 [44]?
**A.** > 2000 µM
